Source: patent US8952024B2, “Herbicidal pyrimidone derivatives” (E I du Pont de Nemours and Company, priority 2009, dated 2015)

What was measured:
Format in all cases: in vivo
[1] = test system: umbrella sedge (Cyperus difformis); experiment: Test B flooded paddy test; details: for Plant response rating, Flood, Sedge, Umbrella: 250 g ai/ha, flooded paddy test, visual rating on 0 to 100 scale (0 no effect, 100 complete control) after 13 to 15 days; for Plant response rating, Sedge, Umbrella: Flood (flooded paddy test), 13 to 15 days; for Sedge, Umbrella plant response rating: Flood, 31 g ai/ha, scale 0 to 100 (0 no effect, 100 complete control)
Summary of the method: (§1)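 2-leaf seedlings; pots flooded 3 cm over soil at treatment; cpd dosed into floodwater, depth kept constant. Greenhouse 13–15 d. Visual rating vs untreated controls, 0 = no effect, 100 = complete control.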

[2] = test system: rice (Oryza sativa); experiment: Test B flooded paddy test; details: for Plant response rating, Flood, Rice: 250 g ai/ha, flooded paddy test, visual rating on 0 to 100 scale (0 no effect, 100 complete control) after 13 to 15 days; for Plant response rating, Rice: Flood (flooded paddy test), 13 to 15 days; for Rice plant response rating: Flood, 31 g ai/ha, scale 0 to 100 (0 no effect, 100 complete control)
Summary of the method: as §1

[3] = test system: ducksalad (Heteranthera limosa); experiment: Test B flooded paddy test; details: for Plant response rating, Flood, Ducksalad: 250 g ai/ha, flooded paddy test, visual rating on 0 to 100 scale (0 no effect, 100 complete control) after 13 to 15 days; for Plant response rating, Ducksalad: Flood (flooded paddy test), 13 to 15 days; for Ducksalad plant response rating: Flood, 31 g ai/ha, scale 0 to 100 (0 no effect, 100 complete control)
Summary of the method: as §1

[4] = test system: barnyardgrass (Echinochloa crus-galli); experiment: Test B flooded paddy test; details: for Plant response rating, Flood, Barnyardgrass: 250 g ai/ha, flooded paddy test, visual rating on 0 to 100 scale (0 no effect, 100 complete control) after 13 to 15 days; for Plant response rating, Barnyardgrass: Flood (flooded paddy test), 13 to 15 days; for Barnyardgrass plant response rating: Flood, 31 g ai/ha, scale 0 to 100 (0 no effect, 100 complete control)
Summary of the method: as §1

[5] = test system: large crabgrass (Digitaria sanguinalis); experiment: Test A pre-/postemergence plant response
Summary of the method: (§2)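 Formulated test chemicals (non-phytotoxic solvent, surfactant) were sprayed onto soil right after planting and simultaneously onto young plants at one to two leaves, 2 to 10 cm tall. Plants stayed in the greenhouse about ten days; injury was then visually scored against untreated controls, from 0 (no effect) to 100 (complete control).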

[6] = test system: corn (Zea mays); experiment: Test A pre-/postemergence plant response
Summary of the method: as §2

[7] = test system: wheat (Triticum aestivum); experiment: Test A pre-/postemergence plant response
Summary of the method: as §2

[8] = test system: morningglory (Ipomoea spp.); experiment: Test A pre-/postemergence plant response
Summary of the method: as §2

[9] = test system: velvetleaf (Abutilon theophrasti); experiment: Test A pre-/postemergence plant response
Summary of the method: as §2

[10] = test system: barnyardgrass (Echinochloa crus-galli); experiment: Test A pre-/postemergence plant response
Summary of the method: as §2

[11] = test system: giant foxtail (Setaria faberii); experiment: Test A pre-/postemergence plant response
Summary of the method: as §2

[12] = test system: pigweed (Amaranthus retroflexus); experiment: Test A pre-/postemergence plant response
Summary of the method: as §2

[13] = 62 g ai/ha, scale of 0 to 100 where 0 is no effect and 100 is complete control
[14] = 125 g ai/ha, scale 0 to 100, 0 is no effect, 100 is complete control
[15] = Postemergence, 125 g ai/ha, 0 to 100 scale where 0 is no effect and 100 is complete control
[16] = Postemergence, 500 g ai/ha, 0 to 100 scale, 0 = no effect, 100 = complete control, approx. ten days
[17] = Preemergence, 125 g ai/ha, 0 to 100 scale, 0 = no effect, 100 = complete control
[18] = Preemergence, 500 g ai/ha, visual injury, 0 to 100 scale (0 no effect, 100 complete control), approx. ten days
[19] = Preemergence, 500 g ai/ha, 0 to 100 scale, 0 = no effect, 100 = complete control

Cc1ccc(Cl)cc1-n1c(-c2cccc(Cl)c2)ncc(C(=O)C2=C(O)CCCC2=O)c1=O [Compound 148]
Plant response rating, Flood, Sedge, Umbrella [1]: 95
Plant response rating, Sedge, Umbrella [1, 13]: 80
Plant response rating, Sedge, Umbrella [1, 14]: 85
Sedge, Umbrella plant response rating [1]: 80
Plant response rating, Flood, Rice [2]: 50
Plant response rating, Rice [2, 13]: 10
Plant response rating, Rice [2, 14]: 20
Rice plant response rating [2]: 20
Plant response rating, Flood, Ducksalad [3]: 100
Plant response rating, Ducksalad [3, 13]: 90
Plant response rating, Ducksalad [3, 14]: 90
Ducksalad plant response rating [3]: 90
Plant response rating, Flood, Barnyardgrass [4]: 50
Plant response rating, Barnyardgrass [4, 13]: 0
Plant response rating, Barnyardgrass [4, 14]: 15
Barnyardgrass plant response rating [4]: 0
Plant response rating, Crabgrass, Large [5, 15]: 70
Plant response rating, Crabgrass, Large [5, 16]: 90
Plant response rating, Crabgrass, Large [5, 17]: 0
Plant response rating, Crabgrass, Large [5, 18]: 50
Plant response rating, Corn [6, 15]: 0
Plant response rating, Corn [6, 16]: 60
Plant response rating, Corn [6, 17]: 0
Plant response rating, Corn [6, 18]: 0
Plant response rating, Wheat [7, 15]: 0
Plant response rating, Wheat [7, 16]: 0
Plant response rating, Wheat [7, 17]: 0
Plant response rating, Wheat [7, 19]: 0
Plant response rating, Morningglory [8, 15]: 100
Plant response rating, Morningglory [8, 16]: 100
Plant response rating, Morningglory [8, 17]: 0
Plant response rating, Morningglory [8, 18]: 0
Plant response rating, Velvetleaf [9, 15]: 100
Plant response rating, Velvetleaf [9, 16]: 100
Plant response rating, Velvetleaf [9, 17]: 30
Plant response rating, Velvetleaf [9, 19]: 80
Plant response rating, Barnyardgrass [10, 15]: 90
Plant response rating, Barnyardgrass [10, 16]: 100
Plant response rating, Barnyardgrass [10, 17]: 10
Plant response rating, Barnyardgrass [10, 18]: 30
Plant response rating, Foxtail, Giant [11, 15]: 60
Plant response rating, Foxtail, Giant [11, 16]: 90
Plant response rating, Foxtail, Giant [11, 17]: 0
Plant response rating, Foxtail, Giant [11, 18]: 10
Plant response rating, Pigweed [12, 15]: 90
Plant response rating, Pigweed [12, 16]: 100
Plant response rating, Pigweed [12, 17]: 0
Plant response rating, Pigweed [12, 18]: 60

COc1ccc(-n2c(-c3cccc(Cl)c3)ncc(C(=O)C3=C(O)CCCC3=O)c2=O)cc1 [Compound 151]
Plant response rating, Flood, Sedge, Umbrella [1]: 100
Plant response rating, Sedge, Umbrella [1, 13]: 85
Plant response rating, Sedge, Umbrella [1, 14]: 100
Sedge, Umbrella plant response rating [1]: 85
Plant response rating, Flood, Rice [2]: 50
Plant response rating, Rice [2, 13]: 0
Plant response rating, Rice [2, 14]: 15
Rice plant response rating [2]: 20
Plant response rating, Flood, Ducksalad [3]: 100
Plant response rating, Ducksalad [3, 13]: 80
Plant response rating, Ducksalad [3, 14]: 100
Ducksalad plant response rating [3]: 80
Plant response rating, Flood, Barnyardgrass [4]: 55
Plant response rating, Barnyardgrass [4, 13]: 15
Plant response rating, Barnyardgrass [4, 14]: 30
Barnyardgrass plant response rating [4]: 0
Plant response rating, Crabgrass, Large [5, 15]: 30
Plant response rating, Crabgrass, Large [5, 16]: 70
Plant response rating, Crabgrass, Large [5, 17]: 10
Plant response rating, Crabgrass, Large [5, 18]: 50
Plant response rating, Corn [6, 15]: 0
Plant response rating, Corn [6, 16]: 10
Plant response rating, Corn [6, 17]: 0
Plant response rating, Corn [6, 18]: 0
Plant response rating, Wheat [7, 15]: 0
Plant response rating, Wheat [7, 16]: 20
Plant response rating, Wheat [7, 17]: 0
Plant response rating, Wheat [7, 19]: 20
Plant response rating, Morningglory [8, 15]: 40
Plant response rating, Morningglory [8, 16]: 100
Plant response rating, Morningglory [8, 18]: 30
Plant response rating, Velvetleaf [9, 15]: 100
Plant response rating, Velvetleaf [9, 16]: 100
Plant response rating, Velvetleaf [9, 17]: 50
Plant response rating, Velvetleaf [9, 19]: 70
Plant response rating, Barnyardgrass [10, 15]: 60
Plant response rating, Barnyardgrass [10, 16]: 90
Plant response rating, Barnyardgrass [10, 17]: 20
Plant response rating, Barnyardgrass [10, 18]: 100
Plant response rating, Foxtail, Giant [11, 15]: 20
Plant response rating, Foxtail, Giant [11, 16]: 70
Plant response rating, Foxtail, Giant [11, 17]: 20
Plant response rating, Foxtail, Giant [11, 18]: 60
Plant response rating, Pigweed [12, 15]: 100
Plant response rating, Pigweed [12, 16]: 100
Plant response rating, Pigweed [12, 17]: 50
Plant response rating, Pigweed [12, 18]: 70

COCCn1c(-c2cccc(Br)c2)ncc(C(=O)C2=C(O)CCCC2=O)c1=O [Compound 139]
Plant response rating, Flood, Sedge, Umbrella [1]: 85
Plant response rating, Sedge, Umbrella [1, 13]: 70
Plant response rating, Flood, Rice [2]: 30
Plant response rating, Rice [2, 13]: 10
Plant response rating, Flood, Ducksalad [3]: 90
Plant response rating, Ducksalad [3, 13]: 75
Plant response rating, Flood, Barnyardgrass [4]: 35
Plant response rating, Barnyardgrass [4, 13]: 10
Plant response rating, Crabgrass, Large [5, 15]: 70
Plant response rating, Crabgrass, Large [5, 16]: 80
Plant response rating, Crabgrass, Large [5, 17]: 90
Plant response rating, Crabgrass, Large [5, 18]: 100
Plant response rating, Corn [6, 15]: 20
Plant response rating, Corn [6, 16]: 40
Plant response rating, Corn [6, 17]: 0
Plant response rating, Corn [6, 18]: 20
Plant response rating, Wheat [7, 15]: 20
Plant response rating, Wheat [7, 16]: 40
Plant response rating, Wheat [7, 17]: 0
Plant response rating, Wheat [7, 18]: 10
Plant response rating, Morningglory [8, 15]: 100
Plant response rating, Morningglory [8, 16]: 100
Plant response rating, Morningglory [8, 17]: 0
Plant response rating, Morningglory [8, 18]: 80
Plant response rating, Velvetleaf [9, 15]: 100
Plant response rating, Velvetleaf [9, 16]: 100
Plant response rating, Velvetleaf [9, 17]: 60
Plant response rating, Velvetleaf [9, 18]: 90
Plant response rating, Barnyardgrass [10, 15]: 60
Plant response rating, Barnyardgrass [10, 16]: 80
Plant response rating, Barnyardgrass [10, 17]: 40
Plant response rating, Barnyardgrass [10, 18]: 90
Plant response rating, Foxtail, Giant [11, 15]: 50
Plant response rating, Foxtail, Giant [11, 16]: 80
Plant response rating, Foxtail, Giant [11, 17]: 20
Plant response rating, Foxtail, Giant [11, 18]: 70
Plant response rating, Pigweed [12, 15]: 90
Plant response rating, Pigweed [12, 16]: 100
Plant response rating, Pigweed [12, 17]: 70
Plant response rating, Pigweed [12, 18]: 100
